According to ChEMBL document CHEMBL1201862, “PubChem BioAssay data set” (2004):
Activity calls are given as the source filed them.

How the values were obtained:
[1] = molecular target: T1, fMet-Leu-Phe receptor (Homo sapiens, UniProt P21462); test: FPR ligands, dose response (AID 519); type: functional
T1 sequence (P21462 whole entry): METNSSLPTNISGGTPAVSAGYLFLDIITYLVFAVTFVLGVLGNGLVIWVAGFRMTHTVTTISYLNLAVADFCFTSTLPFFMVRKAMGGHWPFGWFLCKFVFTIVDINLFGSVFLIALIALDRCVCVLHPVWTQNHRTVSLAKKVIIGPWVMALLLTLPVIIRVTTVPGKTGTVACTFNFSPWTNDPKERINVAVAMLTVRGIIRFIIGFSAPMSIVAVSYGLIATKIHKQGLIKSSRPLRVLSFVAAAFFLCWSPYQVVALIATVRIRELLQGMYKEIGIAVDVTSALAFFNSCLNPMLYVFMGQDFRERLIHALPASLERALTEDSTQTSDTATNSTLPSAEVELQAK

[2] = cells; type: functional, cell-based
[3] = cells; type: functional, cell-based; remark: listed apart in the source
[4] = molecular target: T2, Heat shock factor protein 1 (Mus musculus, UniProt P38532); test: inhibition of MG132-induced HSE-luciferase signal, confirmation, cell-based, NIH3T3, luminescence, dose retest (AID 2382); type: functional;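 note: NIH3T3 fibroblasts with HSF1-driven luciferase reporter stressed by proteasome inhibitor MG132; luminescence from HSF1-driven luciferase expression after 8 hours of MG132 stress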
T2 sequence (P38532 whole entry): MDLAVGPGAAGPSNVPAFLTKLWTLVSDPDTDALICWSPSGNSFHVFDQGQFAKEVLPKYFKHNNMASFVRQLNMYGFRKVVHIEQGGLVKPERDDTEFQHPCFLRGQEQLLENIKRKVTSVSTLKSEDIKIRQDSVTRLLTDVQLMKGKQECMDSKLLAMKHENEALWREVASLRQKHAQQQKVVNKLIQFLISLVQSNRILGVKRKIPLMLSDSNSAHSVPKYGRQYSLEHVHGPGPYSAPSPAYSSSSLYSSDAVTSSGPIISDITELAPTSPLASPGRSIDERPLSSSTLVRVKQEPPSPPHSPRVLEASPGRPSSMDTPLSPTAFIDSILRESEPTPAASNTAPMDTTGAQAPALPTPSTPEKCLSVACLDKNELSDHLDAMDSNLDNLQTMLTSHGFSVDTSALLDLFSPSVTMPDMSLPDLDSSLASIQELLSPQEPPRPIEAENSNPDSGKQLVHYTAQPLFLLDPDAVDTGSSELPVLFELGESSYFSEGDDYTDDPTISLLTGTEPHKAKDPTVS

[5] = system: HEK293; test: inhibitors of LMP1-driven NF-kB reporter, dose response, cell-based, HEK293, luciferase, cherry-pick (AID 588343); type: functional; details: Homo sapiens
[6] = Luminescence-based cell-based high throughput dose response assay to identify activators of the DAF-12 from the parasite S. stercoralis (ssDAF-12).; type: functional
[7] = molecular target: T3, Apoptotic protease-activating factor 1 (Homo sapiens, UniProt O14727); type: functional
T3 sequence (O14727 whole entry): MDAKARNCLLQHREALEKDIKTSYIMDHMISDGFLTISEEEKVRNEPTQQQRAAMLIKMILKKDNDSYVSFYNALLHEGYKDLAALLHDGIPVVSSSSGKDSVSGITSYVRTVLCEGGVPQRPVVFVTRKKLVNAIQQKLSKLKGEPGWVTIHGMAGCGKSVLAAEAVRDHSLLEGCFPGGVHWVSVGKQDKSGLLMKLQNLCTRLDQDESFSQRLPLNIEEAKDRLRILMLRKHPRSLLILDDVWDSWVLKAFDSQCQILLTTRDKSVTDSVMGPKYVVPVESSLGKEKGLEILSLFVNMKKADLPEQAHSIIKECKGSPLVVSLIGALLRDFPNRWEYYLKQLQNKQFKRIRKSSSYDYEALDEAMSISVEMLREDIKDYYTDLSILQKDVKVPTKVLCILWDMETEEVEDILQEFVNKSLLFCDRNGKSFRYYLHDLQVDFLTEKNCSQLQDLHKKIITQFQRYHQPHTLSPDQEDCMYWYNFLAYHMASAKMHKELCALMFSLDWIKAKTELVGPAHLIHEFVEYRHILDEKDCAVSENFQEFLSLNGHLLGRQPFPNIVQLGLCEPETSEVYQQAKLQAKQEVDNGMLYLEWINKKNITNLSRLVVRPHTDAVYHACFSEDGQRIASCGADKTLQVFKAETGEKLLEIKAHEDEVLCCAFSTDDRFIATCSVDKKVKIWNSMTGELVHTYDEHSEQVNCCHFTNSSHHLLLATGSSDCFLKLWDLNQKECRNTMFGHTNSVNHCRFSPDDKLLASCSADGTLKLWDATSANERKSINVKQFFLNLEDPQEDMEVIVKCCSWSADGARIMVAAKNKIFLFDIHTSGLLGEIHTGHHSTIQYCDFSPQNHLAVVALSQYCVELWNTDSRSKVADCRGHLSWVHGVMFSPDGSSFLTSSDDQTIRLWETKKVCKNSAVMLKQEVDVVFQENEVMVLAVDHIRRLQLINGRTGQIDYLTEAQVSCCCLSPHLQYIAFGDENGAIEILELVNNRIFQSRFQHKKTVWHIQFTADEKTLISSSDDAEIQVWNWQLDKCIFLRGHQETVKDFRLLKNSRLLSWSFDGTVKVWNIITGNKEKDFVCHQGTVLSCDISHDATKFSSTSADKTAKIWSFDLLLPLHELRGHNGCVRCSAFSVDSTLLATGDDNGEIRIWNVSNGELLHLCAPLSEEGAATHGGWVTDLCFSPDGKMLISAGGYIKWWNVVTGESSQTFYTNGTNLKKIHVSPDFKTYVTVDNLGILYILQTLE

[8] = molecular target: Nonstructural protein 1 (Influenza A virus, UniProt Q194T2); type: functional, Influenza A virus (A/California/07/2009(H1N1))
[9] = molecular target: T4, COUP transcription factor 2 (Homo sapiens, UniProt P24468); test: Luminescence-based cell-based high throughput dose response assay to identify inhibitors of COUP-TFII (NR2F2).; type: functional;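 note: HEK293 cells transiently cotransfected with COUP-TFII expression vector and reporter; luciferase reporter luminescence driven by COUP-TFII from the pX2-168 reporter plasmid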
T4 sequence (P24468 whole entry): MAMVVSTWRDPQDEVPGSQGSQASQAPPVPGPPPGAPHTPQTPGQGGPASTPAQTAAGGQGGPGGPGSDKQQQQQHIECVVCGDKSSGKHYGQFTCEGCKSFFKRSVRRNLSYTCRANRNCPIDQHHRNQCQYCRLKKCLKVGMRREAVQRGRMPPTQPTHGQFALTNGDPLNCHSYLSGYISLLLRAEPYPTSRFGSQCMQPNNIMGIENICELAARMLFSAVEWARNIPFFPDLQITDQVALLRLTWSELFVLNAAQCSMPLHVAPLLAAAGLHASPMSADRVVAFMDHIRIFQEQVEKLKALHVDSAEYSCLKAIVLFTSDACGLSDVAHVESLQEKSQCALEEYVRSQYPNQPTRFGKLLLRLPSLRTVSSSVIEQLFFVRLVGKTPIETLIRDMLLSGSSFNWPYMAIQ

[10] = molecular target: T5, Rac GTPase-activating protein 1 (Homo sapiens, UniProt Q9H0H5); test: MgcRacGAP GTPase-activating activity inhibitors, confirmation, biochemical, ADP Hunter fluorescence, primary and confirmatory (AID 624330); type: functional
T5 sequence (Q9H0H5 whole entry): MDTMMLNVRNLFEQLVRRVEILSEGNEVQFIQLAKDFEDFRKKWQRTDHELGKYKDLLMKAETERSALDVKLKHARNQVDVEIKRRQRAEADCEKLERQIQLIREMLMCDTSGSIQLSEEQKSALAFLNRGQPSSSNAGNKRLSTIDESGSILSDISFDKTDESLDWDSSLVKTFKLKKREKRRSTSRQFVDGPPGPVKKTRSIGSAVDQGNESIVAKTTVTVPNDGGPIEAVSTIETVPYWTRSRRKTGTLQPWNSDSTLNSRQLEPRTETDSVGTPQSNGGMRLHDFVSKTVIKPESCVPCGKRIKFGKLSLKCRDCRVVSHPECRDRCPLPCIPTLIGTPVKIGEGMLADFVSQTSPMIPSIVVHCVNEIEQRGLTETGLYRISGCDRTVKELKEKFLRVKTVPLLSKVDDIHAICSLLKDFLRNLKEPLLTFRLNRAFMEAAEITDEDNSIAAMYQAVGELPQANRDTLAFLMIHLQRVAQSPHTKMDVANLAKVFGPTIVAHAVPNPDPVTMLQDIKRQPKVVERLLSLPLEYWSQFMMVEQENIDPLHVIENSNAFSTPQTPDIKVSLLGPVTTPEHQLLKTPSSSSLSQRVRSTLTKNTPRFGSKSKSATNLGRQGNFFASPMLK

[11] = molecular target: T6, Caspase-6 (Homo sapiens, UniProt P55212); test: human caspase-6 inhibitors, dose response, biochemical, VEID-R110 fluorescence, cherry-pick (AID 720632)
T6 sequence (P55212 whole entry): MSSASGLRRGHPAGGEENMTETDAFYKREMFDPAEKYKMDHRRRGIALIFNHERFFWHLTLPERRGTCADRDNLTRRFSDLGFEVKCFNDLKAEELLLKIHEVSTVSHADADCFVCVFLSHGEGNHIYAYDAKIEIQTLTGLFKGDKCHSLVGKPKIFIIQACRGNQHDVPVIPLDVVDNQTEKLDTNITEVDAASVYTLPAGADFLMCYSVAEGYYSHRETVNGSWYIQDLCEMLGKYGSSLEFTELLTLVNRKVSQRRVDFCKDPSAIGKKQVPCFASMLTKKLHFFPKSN

[12] = miR-122 activators in hepatoma reporter cells, dose response, cell-based, Huh7 psiCHECK-miR122, Renilla luciferase, cherry-picked (AID 651956); type: functional;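 note: huh7 hepatoma cells stably carrying a psiCHECK-2 miR-122 sensor plasmid; renilla luciferase signal reporting endogenous miR-122 activity after 48 h compound exposure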
[13] = ZM109 Env clade C HIV-1 fusion inhibitors, dose response, HeLa effector, CEM target cells, luciferase, cherry-pick (AID 652058); type: functional, cell-based
[14] = inhibitors of clade B AD8 Env fusion, dose response, cell-based, cherry-pick (AID 652062); type: functional;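 note: luciferase signal from cell-cell fusion driven by HIV-1 clade B AD8 Env; potency is for inhibitors of fusion seen as a drop in luminescence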
[15] = inhibitors of HIV Env-driven cell fusion, dose response, cherry-pick (AID 652057); type: functional, cell-based

Chain of Nonstructural protein 1 (Q194T2 whole entry): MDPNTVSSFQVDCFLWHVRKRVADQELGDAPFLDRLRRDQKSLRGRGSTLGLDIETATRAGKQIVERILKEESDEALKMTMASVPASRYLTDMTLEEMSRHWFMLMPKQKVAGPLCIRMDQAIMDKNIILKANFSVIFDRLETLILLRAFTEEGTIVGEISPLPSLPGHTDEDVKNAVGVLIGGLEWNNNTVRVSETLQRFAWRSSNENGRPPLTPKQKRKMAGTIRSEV

In the case of C=CCOc1ccc(C2C(C(=O)c3ccco3)=C(O)C(=O)N2Cc2cccnc2)cc1 (centres undefined), the Ki [1] is reported as 9.7 µM (active).
In the case of C[C@@H](C(=O)Nc1ccc2c(c1)OCCO2)n1c(=O)[nH]c2ccccc2c1=O, the EC50 [2] is reported as > 350 µM (not active), the EC50 [3] is reported as > 350 µM (not active) and the EC50 [4] is reported as 0.377 µM (active). For the same molecule, the AC50 [5] was 6.08 µM (active).
With CCOC(=O)Nc1ccc(OC)cc1S(=O)(=O)N1CCCCC1 the Ki [1] was > 66.7 µM (inactive).
In the case of CCC(C)N1C(=O)/C(=C\c2ccc(N3CCCCCC3)cc2)C(=O)NC1=S (centres undefined), the IC50 [6] is reported as > 67.5 µM (inactive).
For O=C(O)CCNc1cc(N2CCN(C(=O)c3ccco3)CC2)c2noc3c2c1C(=O)c1ccccc1-3, the IC50 [7] was 21.4 µM (active) and the IC50 [8] was 26.9 µM (active).
In the case of Cc1cc(NC2CCCC2)n2ncc(-c3ccccc3)c2n1, the IC50 [9] is reported as 49.3 µM (inactive).
With COc1cc(/C=N/Nc2ccc(C(=O)O)cc2)ccc1O the IC50 [10] was 39.9 µM (active) and the AC50 [11] was 11.1 µM (active).
In the case of CCN(C[C@H]1[C@H](c2ccccc2)[C@@H](CO)N1C(=O)C1CC1)C(=O)NC1CCCC1, the AC50 [12] is reported as 47.8 µM (active).
With CCN(C[C@@H]1[C@@H](c2ccc(C3=CCCCC3)cc2)[C@@H](CO)N1CC1CC1)C(C)=O the AC50 [12] was 31.2 µM (active).
In the case of CCCC#Cc1ccc2c(c1)O[C@@H](CN(C)S(=O)(=O)c1cccc(F)c1)[C@@H](C)CN([C@@H](C)CO)S2(=O)=O, the AC50 [13] is reported as 3.62 µM (active), the AC50 [14] is reported as 13.3 µM (active) and the AC50 [15] is reported as 4.98 µM (active).
In the case of O=C(N/N=C/c1cc(Br)c(O)c(Br)c1O)c1cccnc1, the IC50 [8] is reported as 15.5 µM (active) and the AC50 [11] is reported as 22.9 µM (active).
